Laboratory results: patent US11878975B2, “Substituted indole compounds useful as TLR inhibitors” (BRISTOL-MYERS SQUIBB COMPANY, priority 2017, dated 2024)

Key:
Type in all cases: cell-based
human TLR7 = biological target: T1, human TLR7 (Homo sapiens, UniProt Q9NYK1); experiment: TLR7 inhibition reporter assay (HEK-Blue cells, SEAP reporter, gardiquimod stimulation); details: HEK-Blue cells overexpressing human TLR7, SEAP reporter, gardiquimod 7.5 μM
T1 construct: host or cells: HEK-Blue cells
T1 sequence (Q9NYK1 27-1049): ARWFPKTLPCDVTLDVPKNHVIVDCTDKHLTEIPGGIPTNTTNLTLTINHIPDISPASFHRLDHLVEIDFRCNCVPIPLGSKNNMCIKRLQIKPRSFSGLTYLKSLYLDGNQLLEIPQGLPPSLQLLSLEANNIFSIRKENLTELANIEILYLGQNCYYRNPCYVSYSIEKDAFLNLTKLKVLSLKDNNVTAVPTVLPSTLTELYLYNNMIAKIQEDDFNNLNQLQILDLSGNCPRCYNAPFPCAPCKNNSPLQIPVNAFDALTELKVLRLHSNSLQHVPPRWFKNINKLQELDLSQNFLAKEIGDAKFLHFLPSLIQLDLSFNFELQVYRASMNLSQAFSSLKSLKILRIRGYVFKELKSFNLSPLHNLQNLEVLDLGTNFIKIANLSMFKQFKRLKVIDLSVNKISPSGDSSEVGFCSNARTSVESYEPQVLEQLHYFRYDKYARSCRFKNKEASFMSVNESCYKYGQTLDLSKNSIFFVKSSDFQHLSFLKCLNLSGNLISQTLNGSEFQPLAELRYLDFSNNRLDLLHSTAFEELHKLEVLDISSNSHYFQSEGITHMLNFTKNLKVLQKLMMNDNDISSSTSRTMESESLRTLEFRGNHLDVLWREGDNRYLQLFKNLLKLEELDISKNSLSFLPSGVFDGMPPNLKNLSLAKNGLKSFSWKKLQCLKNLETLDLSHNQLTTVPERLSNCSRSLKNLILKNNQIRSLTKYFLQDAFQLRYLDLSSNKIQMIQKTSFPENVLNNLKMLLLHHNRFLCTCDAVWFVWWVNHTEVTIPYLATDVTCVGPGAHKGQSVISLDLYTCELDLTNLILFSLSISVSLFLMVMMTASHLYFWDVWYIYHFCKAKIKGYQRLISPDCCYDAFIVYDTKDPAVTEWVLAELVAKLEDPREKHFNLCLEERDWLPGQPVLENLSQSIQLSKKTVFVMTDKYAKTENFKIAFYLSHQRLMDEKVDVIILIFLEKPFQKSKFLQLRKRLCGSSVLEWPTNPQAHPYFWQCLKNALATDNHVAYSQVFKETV
Procedure, shortened: (§1)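 HEK-Blue cells with NF-κB/AP-1-driven SEAP reporter, pre-treated 30 min at room temperature with compound (0.05 nM-50 μM). Stimulants: gardiquimod 7.5 μM (TLR7), R848 15.9 μM (TLR8) or ODN2006 5 nM (TLR9). SEAP measured after 22 h at 37° C.; percent inhibition versus agonist-plus-DMSO and known-inhibitor wells.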

human TLR8 = biological target: T2, human TLR8 (Homo sapiens, UniProt Q9NR97); experiment: TLR8 inhibition reporter assay (HEK-Blue cells, SEAP reporter, R848 stimulation); details: HEK-Blue cells overexpressing human TLR8, SEAP reporter, R848 15.9 μM
T2 construct: host or cells: HEK-Blue cells
T2 sequence (Q9NR97 27-1041): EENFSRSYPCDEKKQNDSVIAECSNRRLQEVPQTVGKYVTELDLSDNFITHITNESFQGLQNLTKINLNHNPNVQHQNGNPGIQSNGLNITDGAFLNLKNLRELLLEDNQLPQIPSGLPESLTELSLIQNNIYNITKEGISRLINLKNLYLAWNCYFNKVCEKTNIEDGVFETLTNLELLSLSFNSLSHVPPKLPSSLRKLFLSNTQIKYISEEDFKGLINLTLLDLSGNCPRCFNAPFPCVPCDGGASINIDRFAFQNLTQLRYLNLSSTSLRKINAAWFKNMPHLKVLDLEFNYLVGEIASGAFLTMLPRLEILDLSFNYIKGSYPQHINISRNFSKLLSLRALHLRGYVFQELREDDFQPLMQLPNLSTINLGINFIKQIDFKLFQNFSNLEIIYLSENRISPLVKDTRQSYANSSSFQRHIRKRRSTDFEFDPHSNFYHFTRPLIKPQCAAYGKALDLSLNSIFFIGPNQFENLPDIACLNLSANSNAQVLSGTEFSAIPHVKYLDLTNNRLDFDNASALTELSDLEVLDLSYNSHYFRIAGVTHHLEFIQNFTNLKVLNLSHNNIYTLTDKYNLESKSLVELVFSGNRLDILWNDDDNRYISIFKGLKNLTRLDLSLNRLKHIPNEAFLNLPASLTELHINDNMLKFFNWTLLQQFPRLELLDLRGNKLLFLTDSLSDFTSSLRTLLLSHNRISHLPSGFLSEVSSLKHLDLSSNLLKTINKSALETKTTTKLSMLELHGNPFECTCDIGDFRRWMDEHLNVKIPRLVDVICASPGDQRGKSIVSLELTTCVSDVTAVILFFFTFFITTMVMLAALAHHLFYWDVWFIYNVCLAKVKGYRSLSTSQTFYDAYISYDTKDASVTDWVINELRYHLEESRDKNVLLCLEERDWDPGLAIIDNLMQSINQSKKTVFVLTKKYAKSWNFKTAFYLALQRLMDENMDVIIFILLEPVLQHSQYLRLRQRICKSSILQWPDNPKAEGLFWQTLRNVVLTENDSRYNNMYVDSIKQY
Procedure, shortened: as §1

human TLR9 = biological target: T3, human TLR9 (Homo sapiens, UniProt Q9NR96); experiment: TLR9 inhibition reporter assay (HEK-Blue cells, SEAP reporter, ODN2006 stimulation); details: HEK-Blue cells overexpressing human TLR9, SEAP reporter, ODN2006 5 nM
T3 construct: host or cells: HEK-Blue cells
T3 sequence (Q9NR96 26-1032): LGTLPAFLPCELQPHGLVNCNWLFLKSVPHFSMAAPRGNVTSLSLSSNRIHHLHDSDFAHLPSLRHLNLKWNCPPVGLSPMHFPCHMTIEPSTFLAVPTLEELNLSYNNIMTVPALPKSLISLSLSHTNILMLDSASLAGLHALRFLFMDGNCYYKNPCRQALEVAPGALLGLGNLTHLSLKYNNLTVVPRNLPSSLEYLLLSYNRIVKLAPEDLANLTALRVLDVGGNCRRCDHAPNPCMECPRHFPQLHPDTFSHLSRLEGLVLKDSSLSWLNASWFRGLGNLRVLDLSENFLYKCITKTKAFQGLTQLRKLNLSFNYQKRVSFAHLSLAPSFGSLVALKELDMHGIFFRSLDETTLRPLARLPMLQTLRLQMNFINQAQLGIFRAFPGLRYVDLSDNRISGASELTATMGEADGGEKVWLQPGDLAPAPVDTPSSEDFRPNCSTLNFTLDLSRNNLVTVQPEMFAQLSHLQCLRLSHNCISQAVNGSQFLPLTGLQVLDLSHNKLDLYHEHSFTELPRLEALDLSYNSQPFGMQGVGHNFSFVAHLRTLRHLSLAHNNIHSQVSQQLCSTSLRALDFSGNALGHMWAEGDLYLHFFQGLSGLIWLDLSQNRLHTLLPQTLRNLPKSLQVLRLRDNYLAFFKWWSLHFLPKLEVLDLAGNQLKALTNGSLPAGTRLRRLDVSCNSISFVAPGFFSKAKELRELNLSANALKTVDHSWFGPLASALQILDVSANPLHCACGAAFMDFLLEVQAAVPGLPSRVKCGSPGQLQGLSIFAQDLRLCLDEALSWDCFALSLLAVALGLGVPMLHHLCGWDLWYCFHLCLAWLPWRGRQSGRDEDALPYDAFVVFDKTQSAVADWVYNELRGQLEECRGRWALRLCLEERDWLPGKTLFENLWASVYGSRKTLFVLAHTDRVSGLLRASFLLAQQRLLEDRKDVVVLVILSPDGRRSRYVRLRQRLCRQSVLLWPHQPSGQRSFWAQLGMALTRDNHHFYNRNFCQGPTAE
Procedure, shortened: as §1

Compound | IC50 (human TLR7) [nM] | IC50 (human TLR8) [nM] | IC50 (human TLR9) [nM]
COCCN(C)C1CCC(c2ccc3[nH]c(-c4cn5ncnc5c(C)c4C)c(C(C)C)c3c2)CC1 (single isomer, unassigned) [Example 152, 4-(2-(7,8-dimethyl-[1,2,4]triazolo[1,5-a]pyridin-6-yl)-3-isopropyl-1H-indol-5-yl)-N-(2-methoxyethyl)-N-methylcyclohexanamine] | 4 | 3.4 | 2850
COCCN(C)C1CCC(c2ccc3[nH]c(-c4cn5ncnc5c(C)c4C)c(C(C)C)c3c2)CC1 (single isomer, unassigned) [Example 153, 4-(2-(7,8-dimethyl-[1,2,4]triazolo[1,5-a]pyridin-6-yl)-3-isopropyl-1H-indol-5-yl)-N-(2-methoxyethyl)-N-methylcyclohexanamine] | 0.5 | 0.72 | 2140
Cc1cc(-c2[nH]c3ccc(C4CCC(C(=O)N5CCN(C)CC5)CC4)cc3c2C(C)C)cn2ncnc12 (single isomer, unassigned) [Example 156] | 0.82 | 6.7 | 3640
Cc1cc(-c2[nH]c3ccc(C4CCC(C(=O)N5CCCCC5)CC4)cc3c2C(C)C)cn2ncnc12 (single isomer, unassigned) [Example 159] | 1690 | 1850 | 28600
Cc1cc(-c2[nH]c3ccc(C4CCC(C(=O)N5CCCCC5)CC4)cc3c2C(C)C)cn2ncnc12 (single isomer, unassigned) [Example 160] | 9 | 154 | 30300
Cc1cc(-c2[nH]c3ccc(C4CCC(C)(O)CC4)cc3c2C(C)C)cc(C)n1 (single isomer, unassigned) [Example 169] | 29 | 293 | 41300
Cc1cc(-c2[nH]c3ccc(C4CCC(O)CC4)cc3c2C(C)C)cc(C)n1 (single isomer, unassigned) [Example 171, 4-(2-(2,6-dimethylpyridin-4-yl)-3-isopropyl-1H-indol-5-yl)cyclohexanol] | 27 | 212 | > 50000
Cc1cc(-c2[nH]c3ccc(C4CCC(O)CC4)cc3c2C(C)C)cc(C)n1 (single isomer, unassigned) [Example 172, 4-(2-(2,6-dimethylpyridin-4-yl)-3-isopropyl-1H-indol-5-yl)cyclohexanol] | 8 | 35 | 15800

The remaining lines, values ahead:

IC50 (human TLR7) [nM] | IC50 (human TLR8) [nM] | IC50 (human TLR9) [nM] | Compound
0.79 | 3.7 | 1620 | CNC1CCC(c2ccc3[nH]c(-c4cc(OC)c5ncnn5c4)c(C(C)C)c3c2)CC1 (single isomer, unassigned) [Example 146, 4-(3-isopropyl-2-(8-methoxy-[1,2,4]triazolo[1,5-a]pyridin-6-yl)-1H-indol-5-yl)-N-methylcyclohexanamine]
0.38 | 2.5 | 6250 | Cc1cc(-c2[nH]c3ccc(C4CCC(C(=O)N5CCN(C)CC5)CC4)cc3c2C(C)C)cn2ncnc12 (single isomer, unassigned) [Example 157]
0.56 | 1.2 | 2110 | CNC(=O)CNC1CCC(c2ccc3[nH]c(-c4cc(C)c5ncnn5c4)c(C(C)C)c3c2)CC1 (single isomer, unassigned) [Example 162, 2-((4-(3-isopropyl-2-(8-methyl-[1,2,4]triazolo[1,5-a]pyridin-6-yl)-1H-indol-5-yl)cyclohexyl)amino)-N-methylacetamide]
0.63 | 0.64 | 2240 | CNC(=O)CNC1CCC(c2ccc3[nH]c(-c4cc(C)c5ncnn5c4)c(C(C)C)c3c2)CC1 (single isomer, unassigned) [Example 163, 2-((4-(3-isopropyl-2-(8-methyl-[1,2,4]triazolo[1,5-a]pyridin-6-yl)-1H-indol-5-yl)cyclohexyl)amino)-N-methylacetamide]
